Data: patent US20130244255A1, “ANTIBODIES DIRECTED TO GPNMB AND USES THEREOF” (priority 2006, published 2013)
“Also recorded” adds a separate entry of the source.

How the values were obtained:
SK-Mel-2 cells = assay: Cell cycle analysis (BrdU / propidium iodide flow cytometry); assay type: cell-based, human
Description: (§1) Briefly, cells were pulsed at the indicated times with 30 μM of bromodeoxyuridine (BrdU, Sigma) for 30 min, harvested, fixed and permeabilized in methanol. Nascent DNA synthesis was detected by anti-bromodeoxyuridine-FITC (BD Biosciences, San Jose, Calif.) staining. Total DNA content was detected using propidium iodide (PI, Sigma). For apoptosis analysis, cells were treated as above and labeled with Annexin V-FITC followed by propidium iodide exclusion using the Annexin V-FITC Apoptosis Detection kit I (BD PharMingen, San Diego, Calif.) according to the manufacturer's protocols. Flow cytometry (as described in the previous Example) was used to assay both cell cycle and apoptosis studies.
(§2) DNA synthesis and cell cycle progression were determined by flow cytometry (Table 52).

TK-10 control cells = assay: as above; assay type: cell-based, human
Description: as §1, §2

PL-21 = assay: Clonogenic assay (methylcellulose) with 1.15.1-AE; assay type: cell-based, human
Description: (§3) Lymphoma or leukemia cell lines were mixed with methylcellulose base media (R&D Systems, USA) and in various concentrations of unconjugated and Auristatin E-conjugated 1.15.1 antibody before plating onto 6-well tissue culture plates (Becton Dickinson, Franklin Lakes, N.J., USA). […] Plates were incubated at 37° C. and examined daily. On days 14-18, colonies on the plates were counted.

Jurkat = assay: Clonogenic assay (methylcellulose) with 1.15.1-AE; assay type: cell-based, human
Description: as §3

SU-DHL-1 = assay: Clonogenic assay (methylcellulose) with 1.15.1-AE; assay type: cell-based, human
Description: as §3

CCRF-CEM = assay: Clonogenic assay (methylcellulose) with 1.15.1-AE; assay type: cell-based, human
Description: as §3

SUP-M2 = assay: Clonogenic assay (methylcellulose) with 1.15.1-AE; assay type: cell-based, human
Description: as §3

KG-1 = assay: Clonogenic assay (methylcellulose) with 1.15.1-AE; assay type: cell-based, human
Description: as §3

MOLT-4 = assay: Clonogenic assay (methylcellulose) with 1.15.1-AE; assay type: cell-based, human
Description: as §3

Karpas 299 = assay: Clonogenic assay (methylcellulose) with 1.15.1-AE; assay type: cell-based, human
Description: as §3

[1] = tested on: SK-MEL-2 human melanoma xenograft; assay: SK-MEL-2 human melanoma xenograft in athymic mice; assay type: in vivo
Description: Five- to 6-week old athymic mice (CD-1 nu/nu females), used for human tumor xenografts, were obtained from Harlan Laboratories (Indianapolis, Ind.). Animals were housed in specific pathogen-free conditions, according to the guidelines of the Association for Assessment and Accreditation of Laboratory Animal Care International (AAALAC International). Test animals were provided pelleted food and water ad libitum and kept in a room with conditioned ventilation (HVAC), temperature (22°±2° C.), relative humidity (55%±15%), and photoperiod (12 hr). All studies were carried out with approved institutional animal care and use protocols.
The tumor inhibitory activity of the CR011-MMAE immunoconjugate was measured in an anti-tumor xenograft model using athymic mice, according to published methods (see Geran et al., Cancer Chemother. Rep. 3:1-104 (1972)). […] When tumors became established (10-20 days), the animals were pair-matched into groups (n=6 mice/group), and treatment was administered by intravenous injection (tail vein).
The SK-MEL-2 human melanoma (ATCC #HTB-68) was derived from a metastatic site (skin of thigh) of a person with malignant melanoma, and the SK− MEL-5 human melanoma (ATCC #HTB-70) was derived from a metastatic site (axillary lymph node) of a person with malignant melanoma (see Fogh et al., J. Natl. Cancer Inst. 59: 221-226 (1977)). Both cell lines were obtained from the American Type Culture Collection.
The effects of treatment were monitored by repetitive tumor measurements across 2 diameters with Vernier calipers; tumor size (in mg) was calculated using a standard formula, (W^2×L)/2, assuming a specific gravity of 1.0. Tumor size and body weights were assessed twice weekly. Mice were examined daily, however, and moribund animals were humanely euthanized if clinical indications of excessive pain or distress were noted (i.e., prostration, hunched posture, paralysis/paresis, distended abdomen, ulcerations, abscesses, seizures, and/or hemorrhages) Animals with tumors exceeding 2,000 mg were removed from the study and euthanized humanely.
No apparent or statistically significant anti-tumor effects were observed. […] In preliminary studies, tumor regression was complete and was not followed by regrowth of the tumor despite lengthy observation periods (up to 200 days).

M14 = assay: Clonogenic assay with 1.15.1-AE; assay type: cell-based, human
Description: (§4) Melanoma cell lines were plated onto flat bottom 96-well tissue culture plates (Becton Dickinson, Franklin Lakes, N.J., USA). On day 2 or when cells reach ˜25% confluency, various concentrations of unconjugated and Auristatin E-conjugated 1.15.1 were added to cells. MAb 2.6.2-AE was also used as a conjugated isotype control in this study. On day 5, the cells were trypsinized, transferred to 6-well tissue culture plates and incubated at 37° C. Plates were examined daily. On days 8-10, all plates were Giemsa stained and colonies on the plates were counted.

HT144 = assay: Clonogenic assay with 1.15.1-AE; assay type: cell-based, human
Description: as §4

A2058 = assay: Clonogenic assay with 1.15.1-AE; assay type: cell-based, human
Description: as §4

HEMNLP = assay: Clonogenic assay with 1.15.1-AE; assay type: cell-based, human
Description: as §4

LOXIMVI = assay: Clonogenic assay with 1.15.1-AE; assay type: cell-based, human
Description: as §4

MEWO = assay: Clonogenic assay with 1.15.1-AE; assay type: cell-based, human
Description: as §4

CG56972-expressing cells = assay: Internalization of cell surface bound antibodies (flow cytometry); assay type: cell-based, human; details: following incubation with CG56972-expressing cells
Description: Internalization of cell surface bound antibodies was assessed by a modified flow cytometry procedure. […] After washing cells, incubation was shifted to 37° C. for 1 hr to allow internalization of bound antibodies. Cells that remained on ice (total surface bound) or that were incubated at 37° C. […] Labeled cells were analyzed by flow cytometry as described above. The percentage of antibody internalized was determined using the GMRs and the following formula:
Percent internalized=Total surface bound (4° C.)−Total surface bound (37° C.)/Total surface bound (4° C.)×100

CR011-vcMMAE: CR011 conjugated to monomethyl auristatin E through a protease cleavable valine-citrulline linker; approx. 4 drugs per antibody
decreased percentage of cells in G1 and S-phase vs untreated cells (SK-Mel-2 cells; 1000 ng/mL, 24 hrs): 10% | reduced percentage of cells in G1 and S-phase (SK-Mel-2 cells; 1000 ng/mL, 48 hr): 11% | % G1 (SK-Mel-2 cells; SK-Mel-2, 24 hour, 100 ng/mL): 56.0% | % S-phase (SK-Mel-2 cells; SK-Mel-2, 24 hour, 100 ng/mL): 26.9% | % Sub-G1 (SK-Mel-2 cells; SK-Mel-2, 24 hour, 100 ng/mL): 0.2% | % G1 (SK-Mel-2 cells; SK-Mel-2, 24 hour, 1000 ng/mL): 43.7% | % S-phase (SK-Mel-2 cells; SK-Mel-2, 24 hour, 1000 ng/mL): 20.0% | effect on cycling of GPNMB-negative cells (TK-10 control cells; 1000 ng/mL): did not affect the cycling | % G1 (TK-10 control cells; TK-10, 24 hour, 100 ng/mL): 51.1% | % S-phase (TK-10 control cells; TK-10, 24 hour, 100 ng/mL): 35.1% | % Sub-G1 (TK-10 control cells; TK-10, 24 hour, 100 ng/mL): 0.7% | % G1 (TK-10 control cells; TK-10, 24 hour, 1000 ng/mL): 52.6% | % S-phase (TK-10 control cells; TK-10, 24 hour, 1000 ng/mL): 34.2% | % Sub-G1 (TK-10 control cells; TK-10, 24 hour, 1000 ng/mL): 0.8% | Clonogenic Assay with 1.15.1-AE IC50 in ng/mL (PL-21): No effect | Clonogenic Assay with 1.15.1-AE IC50 in ng/mL (Jurkat): No effect (repeating) | Clonogenic Assay with 1.15.1-AE IC50 in ng/mL (SU-DHL-1): No effect | Clonogenic Assay with 1.15.1-AE IC50 in ng/mL (CCRF-CEM): No growth | Clonogenic Assay with 1.15.1-AE IC50 in ng/mL (SUP-M2): No growth | Clonogenic Assay with 1.15.1-AE IC50 in ng/mL (KG-1): No growth | Clonogenic Assay with 1.15.1-AE IC50 in ng/mL (MOLT-4): No effect (repeating) | Clonogenic Assay with 1.15.1-AE IC50 in ng/mL (Karpas 299): Inconclusive | tumor size reached ([1]; 1 mg/kg single bolus dose, day 58): ≥ 2,000 mg | tumor response (in words) ([1]; 10 mg/kg single bolus dose): complete regressions | earliest significant treatment effects, time after treatment commenced ([1]; CR011-vcMMAE i.v. q4d×4, P≦0.014): 4 days | anti-tumor effect (in words) ([1]; i.v., CR011-vcMMAE 20, 10, 5 or 2.5 mg/kg q4d×4, vinblastine […] q4d×4): tumors rapidly diminished in size for the majority of the test animals | treatment effects on gross examination ([1]; mouse, in vivo): no abnormal treatment effects | effects of treatment on body weight or weight gain ([1]; twice weekly body weight determinations): no observable or statistically significant effects | Clonogenic Assay with 1.15.1-AE IC50 in ng/mL (M14): Inconclusive | Clonogenic Assay with 1.15.1-AE IC50 in ng/mL (HT144): Inconclusive | Clonogenic Assay with 1.15.1-AE IC50 in ng/mL (A2058): No effect | Clonogenic Assay with 1.15.1-AE IC50 in ng/mL (HEMNLP): Inconclusive | Clonogenic Assay with 1.15.1-AE IC50 in ng/mL (LOXIMVI): No effect | Clonogenic Assay with 1.15.1-AE IC50 in ng/mL (MEWO): Inconclusive

CR011: fully human monoclonal antibody that specifically binds to GPNMB; VH SEQ ID NO: 20, VL SEQ ID NO: 29
% G1 (SK-Mel-2 cells; SK-Mel-2, 24 hour, 1000 ng/mL): 63.6% | % G2/M (SK-Mel-2 cells; SK-Mel-2, 24 hour, 1000 ng/mL): 6.4% | % S-phase (SK-Mel-2 cells; SK-Mel-2, 24 hour, 1000 ng/mL): 25.2% | % Sub-G1 (SK-Mel-2 cells; SK-Mel-2, 24 hour, 1000 ng/mL): 0.5% | % G1 (TK-10 control cells; TK-10, 24 hour, 1000 ng/mL): 42.0% | % G2/M (TK-10 control cells; TK-10, 24 hour, 1000 ng/mL): 6.3% | % S-phase (TK-10 control cells; TK-10, 24 hour, 1000 ng/mL): 39.8% | % Sub-G1 (TK-10 control cells; TK-10, 24 hour, 1000 ng/mL): 0.3% | tumor growth inhibition by components of the immunoconjugate (in words) ([1]; doses identical to that contained in the intact immunoconjugate (5 mg/kg q4d×4)): lack of responses; also recorded: lack of tumor growth inhibition | internalization (in words) (CG56972-expressing cells): internalized
